Columns and labels:
p53 [1] = assay: p53 protein level by immunoblotting (Example 2); type: cell-based, human; details: for increase in p53 protein: MCF-7 cells
Method: Immunoblotting. At 8 hours after triptolide and/or doxorubicin treatment cells were harvested at the times indicated and lysed using HNET buffer (50 mM HEPES pH 7.5, 100 mM NaCl, 1 mM EGTA, and 1% Triton X-100) supplemented with 1 mM DTT, 1 mM PMSF and protease inhibitors cocktail (Boehringer Mannheim, Germany). 35 μg of protein was loaded on 10% SDS-PAGE followed by transferring to PVDF membrane. Immunoblotting was performed as previously described using a p53 mouse monoclonal antibody from Oncogene Research Products (Lee et al. (1999) J Biol Chem 274:13451-5).

[2] = test system: A549 (non-small cell lung cancer) cells; assay: Cell viability by MTT assay, A549 cells; details: for Percent survival: MTT after 48 h
Method: Cell culture and luciferase assay. A549 (non-small cell lung cancer), HT-1080 (fibrosarcoma), and MCF-7 (breast cancer) cells were cultured in the appropriate media with 10% FCS supplemented with L-glutamine, penicillin, and streptomycin. p53 wild-type (+/+) and null (−/−) Mouse Embryonic Fibroblasts (MEFs) transfected with the E1A/Ras were grown in DMEM containing 15% FCS supplemented with L-glutamine, penicillin, and streptomycin. Transfections were done on MCF-7 cells using the lipofectamine Plus reagent. At 24 hours after transfection, MCF-7 cells were left untreated or treated with triptolide (20 ng/ml) or doxorubicin (100 nM) for 4, 8, and 16 hours and cells were collected for luciferase assay. Luciferase activity was measured in samples with equal protein concentration with a Luminometer (Analytical Luminescence Laboratory, San Diego, Calif.).
Cell viability assay. Cell viability was measured by an 3-(4,5-dimethylthiazol-2-yl)-2,5-diphenyltetrazolium bromide (MTT) assay as described above. Untreated or cells treated with triptolide and/or doxorubicin were harvested at the indicated times followed by the addition of MTT to the cells in a 96-well plate. Cells were solubilized with […] acidified with 0.1N HCl. The 96-plate was read at a wavelength of 590 nm on an iEMS Labsystems plate reader.

p21 = p21 protein level by immunoblotting (Example 5); type: cell-based, human; details: for effect on p21 expression: p53 mutant HT29 colon cancer cell line
Method: (§1) Immunoblotting. Cells were harvested at the conditions and times indicated and lysed using HNET buffer (50 mM HEPES, pH 7.5, 100 mM NaCl, 1 mM EGTA, and 1% Triton X-100) supplemented with 1 mM dithiothreitol, 1 mM phenylmethylsulfonyl fluoride, and protease inhibitors mixture (Roche Molecular Biochemicals). 100 μg of protein was loaded on 10% SDS-PAGE followed by transferring to polyvinylidene difluoride membrane. Immunoblotting was performed as described previously using a p53 mouse monoclonal antibody from Oncogene Research Products. […] Immunoblot analysis using other antibodies was performed as described above. The band intensity was measured by NIH Image 1.62.

p53 [3] = assay: p53 protein level by immunoblotting (Example 5); type: cell-based, human
Method: as §1

p53 wild-type (+/+) MEFs = assay: Cell viability of p53+/+ mouse embryonic fibroblasts; type: cell-based
Text: Cell culture and luciferase assay.
Functional p53 enhances triptolide-induced cell death.

HT1080 cells = assay: Cell cycle analysis by propidium iodide/FACS, HT1080 cells; type: cell-based, human; details: 16 h
Method: Cell Cycle Analysis. HT1080 cells ([…]) were treated with triptolide (20 ng/ml) and/or doxorubicin (100 nM) for 16 h. Cells were then harvested and washed with cold PBS. The cells were resuspended gently in 5 ml of 100% ethanol and fixed at 25° C. for 1 h. After washing with PBS, the cells were incubated with DNase-free RNase A (200 μg/ml) at 37 ° C. for 1 h and washed with PBS. Propidium iodide (10 μg/ml) was added, and the cells were incubated at 37° C. for 5 min. Cells were separated by sonicating at 20% output level for 15 s using a VirSonic 50 sonicator (Vitis Inc., NY). The samples were then sorted by FACS, and cell cycle analysis was done with FlowJo (version 3.0.3) (Tree Start, Inc, San Carlos, Calif.).

[4] = test system: Dx5 MDR human tumor cells; assay: Nude mouse xenograft, established Dx5 MDR tumors; type: in vivo, nude mice
Method: Nude mouse xenograft model. Female NCr nude mice were purchased from Taconic, Germantown, N.Y., and were generally 20-24 grams when used. Mice were kept in autoclaved filter-top microisolator cages with autoclaved water and sterile food ad lib. The cages were maintained in an isolator unit providing filtered air (Lab Products, Inc., Maywood, N.J.). Tumor cells were grown and harvested as described above. NCr nude mice were injected intradermally with 5×10^6 tumor cells. In some experiments, treatment was initiated on the day of tumor cell implantation. […] Mice were treated IP daily for 5 days per week.
MDR is a factor in failing to achieve durable chemotherapeutic efficacy in the clinical setting. Using an MDR tumor cell line Dx5 the efficacy of PG490-88 was tested. Nude mice were implanted intradermally with Dx5 tumor cells, and treatment was initiated when the tumors reached approximately 100 mm^3.
The data in FIG. 4 represents the measurement of Dx5 tumor volume on day 14 after the initiation of treatment. Nude mice bearing xenografts of Dx5 MDR human tumor cells were treated daily as shown. The data represent the means and the standard errors of the means of the tumor volumes as percent of the day 0 tumor volumes for each animal measured day 3, 7, 10 and 14 days after the initiation of treatment. There were 5 mice in the groups receiving saline or PG490-88 plus doxorubicin, and 4 mice in the groups receiving PG490-88 or doxorubicin alone.

[5] = A549, Triptolide 5 ng/ml, Doxorubicin 100 nM, alone or combined
[6] = Mus musculus, Fibroblast, read-out: reduction of cell viability

## CC(C)[C@]12O[C@H]1[C@@H]1O[C@]13[C@]1(O[C@H]1C[C@H]1C4=C(CC[C@@]13C)C(=O)OC4)[C@@H]2O [PG490, triptolide]
p53 [1]; MCF-7 and A549 cells, dose- and time-dependent
  increase in p53 steady state protein levels: 2-4 fold
p53 [1]
  increase in p53 protein: greater than 4 fold
[2]; [5]
  Percent survival: 91.1 ± 3.8%
[2]; A549, Triptolide 20 ng/ml alone or with Doxorubicin 100 nM
  Percent survival: 64.0 ± 8.2%
[2]; A549 cells
  effect on cell death induced by carboplatinum: enhances cell death
p21; HT1080, triptolide 20 ng/ml
  reduction of basal p21 levels: 50%
p21; HT1080 and A549 cells
  effect on CPT-11-mediated induction of p21: inhibits
p21
  effect on p21 expression: did not affect
p21; triptolide 5 ng/ml
  reduction of doxorubicin-mediated induction of p53: 58%
p21; triptolide 20 ng/ml
  effect on doxorubicin-induced increase in p21: completely blocked
p53 [3]; HT1080, triptolide 5 ng/ml
  increase in p53: 2.4 fold
p53 [3]; HT1080, triptolide 20 ng/ml, 9 h
  increase in p53 steady-state protein levels: 4 fold
p53 wild-type (+/+) MEFs; [6]
  cytotoxicity at 0.005 µg/mL: 48%
  cytotoxicity at 0.01 µg/mL: 73%
HT1080 cells; HT1080, triptolide 20 ng/ml, 23.7% in unstimulated cells
  cells in S phase: 46%

## CC(C)[C@]12O[C@H]1[C@@H]1O[C@]13[C@]1(O[C@H]1C[C@H]1C4=C(CC[C@@]13C)C(=O)OC4)[C@@H]2OC(=O)CCC(=O)[O-].[Na+] [PG490-88, 14-succinyl triptolide sodium salt]
[4]; PG490-88 0.75 mg/kg/day, one of four mice
  growth of one tumor compared with its day 0 value: 2.8 fold
[4]; PG490-88 0.75 mg/kg/day, three of the four mice
  reduction of mean tumor size compared to day 0 values: 28%

## COc1cccc2c1C(=O)c1c(O)c3c(c(O)c1C2=O)C[C@@](O)(C(=O)CO)C[C@@H]3O[C@H]1C[C@H](N)[C@H](O)[C@H](C)O1 [doxorubicin, reference compound]
p53 [1]
  increase in p53 protein: 2 fold
[2]; [5]
  Percent survival: 85.7 ± 9.6%
[2]; Homo sapiens, A549, 48 h, read-out: decrease in cell viability, A549, triptolide 20 ng/ml, doxorubicin 100 nM, alone or combined, 48 hours
  cytotoxicity at 0.1 µM: 14.3%
p21; HT1080, doxorubicin
  increase in p21: 14.5 fold
p21
  effect on p21 expression: did not affect
p53 [3]; HT1080, doxorubicin alone or plus triptolide
  increase in p53 protein: 4.9 fold
p53 wild-type (+/+) MEFs
  more cell death in MEF cells with wild-type p53 than in those without functional p53: 35%
HT1080 cells; HT1080, doxorubicin 100 nM alone or with triptolide 20 ng/ml, 11% without treatment
  cells in G2/M: 49.8%
[4]; doxorubicin alone 2 mg/kg/day
  increase of mean tumor volume over 14 days: more than 10 fold
